According to patent US20250368617A1, “NOVEL RAS INHIBITORS” (KHR BIOTEC GMBH, priority 2022, published 2025):

Key:
[1] = system: LgBit-KRAS mutants (G12V, G12C, G12D, G12C/Y96D, G13C, G13D, G13S, Q61K and Q61R); test: NanoBit assay for inhibition of RAS activation, KRAS mutants in HeLa cells; assay type: cell-based; settings: LgBit-KRAS mutants and SmBit-CRAF-RBD, 2 h in serum-free DMEM
Experimental: FIG. 3: NanoBit assay for inhibition of RAS activation (G12V, G12C, G12D, G12C/Y96D, G13C, G13D, G13S, Q61K and Q61R)
NanoBiT assay for the RAS GTP-loading was performed in HeLa cells transfected with LgBit-KRAS mutants and SmBit-CRAF-RBD. Cells were treated with GSK2126458 according to the invention for 2 h in serum-free DMEM. After incubation, the substrate for NanoLuc was added, and the luminescence was measured in a multiplate reader. Data were normalized to cells transfected with the indicated mutant and exposed to DMSO for 2 h. DMSO-treated cells were set as 1. The bars represent mean±SEM from 3 independent experiments.

KRAS dependent cells = test: MTT assay for cell viability in 96 well cell culture plate (FIG. 4); assay type: cell-based; settings: 48 h treatment; incl. G12C/Y96D mutation; DMSO set as 1
Experimental: (§1) Metabolic activity was quantified using Cell Proliferation Kit I (Roche, Basel, Switzerland). Cells were seeded in 96-well cell culture plates, using 5000 cells per well for NCI-H358 cells. After treatment, 10 μl of MTT solution was added and incubated for 2 h in CO2 incubator. Then 100 μl of solubilization buffer was added to each well and incubated overnight in CO2 incubator. Cell viability, assessed by the amount of metabolized MTT, was quantified by measuring absorbance at 570 nm.
FIG. 4: MTT assay for cell viability in 96 well cell culture plate Cells were treated with GSK2126458 for 48 h and cell viability was evaluated by MTT assay. […]. DMSO-treated cells were set as 1. The results shown are mean±SEM from 3 independent experiments.

sNF96.2 = test: RASOpathie-Model; MTT assay for cell viability in 96 well cell culture plate (FIG. 5); assay type: cell-based; settings: 48 h treatment
Experimental: as §1
FIG. 5: RASOpathie-Model of GSK2126458; MTT assay for cell viability in 96 well cell culture plate
Cells were treated with GSK2126458 for 48 h and cell viability was evaluated by MTT assay. DMSO-treated cells were set as 1. The results shown are mean±SEM from 3 independent experiments.

HRAS G12V = biological target: T1, HRAS G12V (Homo sapiens, UniProt P01112, G12V); test: NanoBit assay for RAS activation (LgBiT-HRAS G12V / SmBiT-CRAF RAS binding domain); assay type: cell-based; settings: HRAS G12V with CRAF RBD (1-149); 2 h with inhibitor in serum free DMEM; DMSO set as 1
T1 construct: K, N and HRAS G12V (full length) was cloned with Xho I and BgI II to LgBit; expressed in transfected cells
Experimental: (§2) FIGS. 1a) and 1b): NanoBit assay for RAS activation (KRAS G12V, NRAS G12V, HRAS G12V) N-terminal LgBiT and C-terminal SmBiT construct was purchased from Promega and K, N and HRAS G12V (full length) was cloned with Xho I and BgI II to LgBit and CRAF RAS binding domain (1-149) was cloned with EcoRI and BgI II to SmBit. For transfections, 1 μg or 2 μg of (12 well/6 well) plasmids were transfected into cells with 0.5 mM of PEI reagent in 100 μl or 200 μl PBS. One day after transfection, cells were harvested and seeded into 96 well white plates, half area (Greiner). After an additional day the medium was changed to serum free DMEM and the cells were incubated for 2 h with inhibitors. NanoGlo assay was performed according to the manufacturer's instructions. The luminescence was measured using Tecan infinite (Tecan). DMSO-treated cells were set as 1. The results shown are mean mean±SEM from at least 3 independent experiments.

[2] = system: p110a, p110β, p110γ, p110σ, and the mTOR1 and mTOR2 complexes and DNA-PK; settings: ATP-competitive, reversible; cited from earlier work
KRAS G12V = biological target: T2, KRAS G12V (Homo sapiens, UniProt P01116, G12V); test: NanoBit assay for RAS activation (LgBiT-KRAS G12V / SmBiT-CRAF RAS binding domain); assay type: cell-based; settings: KRAS G12V with CRAF RBD (1-149); 2 h with inhibitor in serum free DMEM; DMSO set as 1
T2 construct: K, N and HRAS G12V (full length) was cloned with Xho I and BgI II to LgBit; expressed in transfected cells
Experimental: as §2

NRAS G12V = biological target: T3, NRAS G12V (Homo sapiens, UniProt P01111, G12V); test: NanoBit assay for RAS activation (LgBiT-NRAS G12V / SmBiT-CRAF RAS binding domain); assay type: cell-based; settings: NRAS G12V with CRAF RBD (1-149); 2 h with inhibitor in serum free DMEM; DMSO set as 1
T3 construct: K, N and HRAS G12V (full length) was cloned with Xho I and BgI II to LgBit; expressed in transfected cells
Experimental: as §2

ASPC1 cells = test: Soft agar colony formation assay with MTT staining; assay type: cell-based; settings: Homo sapiens, growth in soft agar, absorbance at 570 nm
Experimental: as §1
(§3) MTT assay for the growth of different tumor cell lines with RAS mutations in soft agar with GSK2126458. Shown are data from three independent experiments.
(§4) NCI-H358, H358, H2122, ASPC-1, HCT-116, T24 and HT1080 cells were used for the soft […] agar colony formation assay. After the treatment with GSK2126458, the colonies were stained with MTT and the value was quantified by measuring absorbance at 570 nm after solubilization. The results represent mean±SD from 3 independent experiments.

NCI-H358 cells = test: Soft agar colony formation assay with MTT staining; assay type: cell-based; settings: Homo sapiens, growth in soft agar, absorbance at 570 nm
Experimental: as §1, §3, §4

HT1080 cells = test: Soft agar colony formation assay with MTT staining; assay type: cell-based; settings: Homo sapiens, HT-1080, growth in soft agar, absorbance at 570 nm
Experimental: as §1, §3, §4

NCI-H2122 cells = test: Soft agar colony formation assay with MTT staining; assay type: cell-based; settings: Homo sapiens, growth in soft agar, absorbance at 570 nm
Experimental: as §1, §3, §4

T24 cells = test: Soft agar colony formation assay with MTT staining; assay type: cell-based; settings: Homo sapiens, T-24, growth in soft agar, absorbance at 570 nm
Experimental: as §1, §3, §4

HCT-116 cells = test: Soft agar colony formation assay with MTT staining; assay type: cell-based; settings: Homo sapiens, growth in soft agar, absorbance at 570 nm
Experimental: as §1, §3, §4

T1 sequence (P01112 1-186 G12V limits assumed): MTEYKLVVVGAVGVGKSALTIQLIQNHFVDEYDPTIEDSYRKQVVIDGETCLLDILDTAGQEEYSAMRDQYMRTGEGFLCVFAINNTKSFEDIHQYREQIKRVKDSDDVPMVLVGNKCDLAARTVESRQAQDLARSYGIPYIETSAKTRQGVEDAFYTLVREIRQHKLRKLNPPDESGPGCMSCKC
T2 sequence (P01116 1-186 isoform P01116-2 G12V limits assumed): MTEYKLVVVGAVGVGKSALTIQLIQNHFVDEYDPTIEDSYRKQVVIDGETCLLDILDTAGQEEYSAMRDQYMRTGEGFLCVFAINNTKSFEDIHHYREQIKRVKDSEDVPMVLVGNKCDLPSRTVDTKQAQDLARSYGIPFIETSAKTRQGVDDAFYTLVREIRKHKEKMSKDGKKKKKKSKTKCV
T3 sequence (P01111 1-186 G12V limits assumed): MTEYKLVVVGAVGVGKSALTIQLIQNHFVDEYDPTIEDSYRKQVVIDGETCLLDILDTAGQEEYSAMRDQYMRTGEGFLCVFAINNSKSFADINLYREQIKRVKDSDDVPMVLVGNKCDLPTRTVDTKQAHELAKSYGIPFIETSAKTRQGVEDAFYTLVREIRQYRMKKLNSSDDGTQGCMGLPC

SMILES: COc1ncc(-c2ccc3nccc(-c4ccnnc4)c3c2)cc1NS(=O)(=O)c1ccc(F)cc1F [GSK2126458, 2,4-Difluoro-N-[2-methoxy-5-[4-(4-pyridazinyl)-6-quinolinyl]-3-pyridinyl]benzenesulfonamide]
- inhibition of RAS activation (RAS GTP-loading, NanoBiT) [1]: inhibits different RAS-isoforms
- cell viability (MTT) (KRAS dependent cells): inhibits KRAS dependent cells irrespective of the presence of mutation
- IC50 (sNF96.2): 3.8 µM
- inhibition of H-RAS activation (NanoBit luminescence) (HRAS G12V): inhibits
- activity against PI3K isoforms, mTOR complexes and DNA-PK [2]: subnanomolar activity
- inhibition of K-RAS activation (NanoBit luminescence) (KRAS G12V): inhibits
- inhibition of N-RAS activation (NanoBit luminescence) (NRAS G12V): inhibits
- IC50 (ASPC1 cells): 10.8 µM
- IC50 (NCI-H358 cells): 11.5 µM
- IC50 (HT1080 cells): 86.9 µM
- IC50 (NCI-H2122 cells): 4.51 µM
- IC50 (T24 cells): 228 µM
- IC50 (HCT-116 cells): 47.4 µM
